For data set [1], the target named is PI3-kinase p110-alpha/p85-alpha (Homo sapiens, UniProt P42336). In words: Inhibition of human PI3Kalpha (p110alpha/p85alpha) by ADP accumulation based HTRF assay. It counts as protein-complex assay. The following applies: for Ki: read-out: Ki(app).
The target of a further data set is PI3K p110 beta/p85 alpha (Homo sapiens, UniProt P42338). In words: Inhibition of human PI3Kbeta (p110beta/p85alpha) by ADP accumulation based HTRF assay. It counts as protein-complex assay. The following applies: read-out: Ki(app).
The target in data set [2] is Phosphatidylinositol 4,5-bisphosphate 3-kinase catalytic subunit alpha isoform (Homo sapiens, UniProt P42336). In words: Inhibition of PI3Kalpha in human U2OS cells assessed as inhibition of AKT Ser 473 phosphorylation by Western blot. In kind it is cell-based. (A western blot detects proteins with antibodies after separation by electrophoresis.)
The target in data set [3] is PI3-kinase p110-delta/p85-alpha (Homo sapiens, UniProt O00329). In words: Inhibition of human PI3Kdelta (p110delta/p85alpha) by ADP accumulation based HTRF assay. The following applies: read-out: Ki(app). It counts as protein-complex assay. For orientation: Time-resolved FRET reads energy transfer from a long-lived donor to a nearby acceptor.
The target in data set [4] is Phosphatidylinositol 4,5-bisphosphate 3-kinase catalytic subunit gamma isoform (Homo sapiens, UniProt P48736). In words: Inhibition of human PI3Kgamma by ADP accumulation based HTRF assay. The following applies: read-out: Ki(app).
In the next data set the target is CYP2D6 (Homo sapiens, UniProt P10635). In words: Inhibition of CYP2D6 at 10 uM. In kind it is ADME.
For the next data set, the target named is CYP2C19 (Homo sapiens, UniProt P33261). In words: Inhibition of CYP2C19 at 10 uM. It counts as ADME.
In another data set the target is T1, CYP1A2 (Homo sapiens, UniProt P05177).
T1 sequence (P05177 whole entry): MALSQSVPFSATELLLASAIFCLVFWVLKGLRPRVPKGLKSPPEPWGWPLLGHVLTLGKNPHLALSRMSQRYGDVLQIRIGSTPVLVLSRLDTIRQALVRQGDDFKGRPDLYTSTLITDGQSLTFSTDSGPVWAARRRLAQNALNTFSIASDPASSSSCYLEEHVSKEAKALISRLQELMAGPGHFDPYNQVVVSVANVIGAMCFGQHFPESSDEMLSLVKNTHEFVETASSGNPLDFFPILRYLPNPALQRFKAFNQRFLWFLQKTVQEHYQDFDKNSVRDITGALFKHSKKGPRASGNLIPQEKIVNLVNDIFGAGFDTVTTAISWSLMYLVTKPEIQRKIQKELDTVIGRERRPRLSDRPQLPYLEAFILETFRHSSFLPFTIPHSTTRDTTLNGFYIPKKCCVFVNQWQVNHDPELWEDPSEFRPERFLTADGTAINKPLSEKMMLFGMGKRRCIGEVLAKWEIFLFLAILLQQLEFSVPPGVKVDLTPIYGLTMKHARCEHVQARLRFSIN
In words: Inhibition of CYP1A2 at 10 uM. In kind it is ADME.

A short description of data set [5]: Stability in mouse liver microsomes at 1 uM incubated for 15 mins. It counts as ADME, Microsome. Particulars: read-out: Stability. (Liver microsomes are vesicles of endoplasmic reticulum, rich in cytochrome P450 enzymes.)
Data set [6] can be described thus: Stability in human liver microsomes at 1 uM incubated for 15 mins. In kind it is ADME, Microsome. The following applies: read-out: Stability.
For another data set, the target named is CYP2C9 (Homo sapiens, UniProt P11712). In words: Inhibition of CYP2C9 at 10 uM. In kind it is ADME.
The next data set concerns the target CYP3A4 (Homo sapiens, UniProt P08684). In words: Inhibition of CYP3A4 at 10 uM. It counts as ADME.

Sequence of PI3-kinase p110-alpha/p85-alpha (P27986 whole entry): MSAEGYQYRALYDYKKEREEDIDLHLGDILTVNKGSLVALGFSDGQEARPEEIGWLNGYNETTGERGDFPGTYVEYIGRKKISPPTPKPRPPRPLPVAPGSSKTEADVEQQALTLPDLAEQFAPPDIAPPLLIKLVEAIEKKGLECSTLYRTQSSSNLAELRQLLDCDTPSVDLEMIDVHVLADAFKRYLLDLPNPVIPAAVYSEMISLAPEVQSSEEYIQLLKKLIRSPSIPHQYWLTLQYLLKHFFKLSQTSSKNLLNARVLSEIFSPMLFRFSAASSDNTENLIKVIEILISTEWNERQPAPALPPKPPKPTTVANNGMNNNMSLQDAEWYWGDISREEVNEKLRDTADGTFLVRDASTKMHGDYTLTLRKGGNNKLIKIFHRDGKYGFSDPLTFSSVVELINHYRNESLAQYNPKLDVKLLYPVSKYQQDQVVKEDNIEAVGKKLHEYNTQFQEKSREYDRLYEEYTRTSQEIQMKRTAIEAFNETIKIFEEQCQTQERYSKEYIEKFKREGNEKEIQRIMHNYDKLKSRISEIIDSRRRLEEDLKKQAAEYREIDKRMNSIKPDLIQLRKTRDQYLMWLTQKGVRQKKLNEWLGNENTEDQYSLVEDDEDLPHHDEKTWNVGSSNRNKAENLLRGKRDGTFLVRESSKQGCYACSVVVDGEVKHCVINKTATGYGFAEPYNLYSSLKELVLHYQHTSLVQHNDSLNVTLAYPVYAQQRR
Sequence of PI3-kinase p110-alpha/p85-alpha (P42336 whole entry): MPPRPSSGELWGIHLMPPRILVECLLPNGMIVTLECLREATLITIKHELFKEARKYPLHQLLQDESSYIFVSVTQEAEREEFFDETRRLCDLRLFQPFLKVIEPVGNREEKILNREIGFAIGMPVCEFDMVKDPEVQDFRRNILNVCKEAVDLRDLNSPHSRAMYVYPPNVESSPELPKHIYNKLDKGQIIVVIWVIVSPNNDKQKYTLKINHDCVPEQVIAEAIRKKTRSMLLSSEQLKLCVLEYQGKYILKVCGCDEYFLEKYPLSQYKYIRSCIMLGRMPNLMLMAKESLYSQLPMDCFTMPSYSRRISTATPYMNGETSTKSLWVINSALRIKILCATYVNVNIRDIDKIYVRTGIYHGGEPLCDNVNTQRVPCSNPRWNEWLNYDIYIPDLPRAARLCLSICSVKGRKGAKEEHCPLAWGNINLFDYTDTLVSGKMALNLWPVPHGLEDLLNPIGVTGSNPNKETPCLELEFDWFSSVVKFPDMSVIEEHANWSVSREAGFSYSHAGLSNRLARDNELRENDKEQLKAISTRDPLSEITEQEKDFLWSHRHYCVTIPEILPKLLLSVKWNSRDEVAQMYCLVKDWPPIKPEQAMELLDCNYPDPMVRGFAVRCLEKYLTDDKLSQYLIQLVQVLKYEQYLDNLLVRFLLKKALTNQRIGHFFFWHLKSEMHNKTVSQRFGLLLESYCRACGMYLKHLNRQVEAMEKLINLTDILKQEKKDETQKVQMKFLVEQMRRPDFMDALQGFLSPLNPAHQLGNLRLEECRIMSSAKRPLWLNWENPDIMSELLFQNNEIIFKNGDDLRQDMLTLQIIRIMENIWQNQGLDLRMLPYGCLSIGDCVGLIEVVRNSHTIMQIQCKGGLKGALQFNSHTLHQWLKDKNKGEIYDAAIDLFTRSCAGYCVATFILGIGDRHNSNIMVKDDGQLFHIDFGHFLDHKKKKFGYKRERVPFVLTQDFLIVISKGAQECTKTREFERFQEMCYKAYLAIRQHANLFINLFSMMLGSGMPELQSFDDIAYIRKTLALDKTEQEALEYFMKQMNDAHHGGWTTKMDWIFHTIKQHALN
Sequence of Phosphatidylinositol 4,5-bisphosphate 3-kinase catalytic subunit alpha isoform (P42336 whole entry, canonical isoform): as the sequence (P42336 whole entry) above
Sequence of PI3-kinase p110-delta/p85-alpha (P27986 whole entry, canonical isoform): as the sequence (P27986 whole entry) above
Sequence of PI3-kinase p110-delta/p85-alpha (O00329 whole entry, canonical isoform): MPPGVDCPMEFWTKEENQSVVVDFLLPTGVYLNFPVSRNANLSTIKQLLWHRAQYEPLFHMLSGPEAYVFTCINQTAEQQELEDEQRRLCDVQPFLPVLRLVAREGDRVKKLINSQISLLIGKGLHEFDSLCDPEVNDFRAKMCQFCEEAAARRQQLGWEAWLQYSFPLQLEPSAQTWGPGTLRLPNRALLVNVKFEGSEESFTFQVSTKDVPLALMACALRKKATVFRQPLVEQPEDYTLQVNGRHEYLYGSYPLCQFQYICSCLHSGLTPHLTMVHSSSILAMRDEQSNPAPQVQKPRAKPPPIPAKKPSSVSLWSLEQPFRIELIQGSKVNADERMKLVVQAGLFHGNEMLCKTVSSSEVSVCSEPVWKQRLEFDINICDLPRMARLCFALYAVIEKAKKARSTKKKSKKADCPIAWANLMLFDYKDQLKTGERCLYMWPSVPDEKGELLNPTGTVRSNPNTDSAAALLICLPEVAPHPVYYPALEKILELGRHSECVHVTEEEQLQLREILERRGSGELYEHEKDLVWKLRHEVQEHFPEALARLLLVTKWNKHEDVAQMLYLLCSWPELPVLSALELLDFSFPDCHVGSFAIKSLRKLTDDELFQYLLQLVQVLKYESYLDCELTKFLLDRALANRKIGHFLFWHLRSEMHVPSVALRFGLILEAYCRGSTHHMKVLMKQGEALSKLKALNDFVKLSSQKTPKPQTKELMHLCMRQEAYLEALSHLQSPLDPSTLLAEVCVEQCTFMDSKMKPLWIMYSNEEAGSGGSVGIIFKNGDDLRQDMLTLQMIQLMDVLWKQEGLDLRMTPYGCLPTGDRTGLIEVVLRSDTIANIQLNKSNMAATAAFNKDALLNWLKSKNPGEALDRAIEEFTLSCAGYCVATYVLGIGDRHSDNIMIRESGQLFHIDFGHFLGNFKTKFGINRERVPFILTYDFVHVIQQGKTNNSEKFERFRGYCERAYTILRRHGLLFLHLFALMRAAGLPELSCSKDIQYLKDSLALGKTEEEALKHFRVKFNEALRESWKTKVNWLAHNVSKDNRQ
Sequence of PI3K p110 beta/p85 alpha (P27986 whole entry, canonical isoform): as the sequence (P27986 whole entry) above
Sequence of PI3K p110 beta/p85 alpha (P42338 whole entry, canonical isoform): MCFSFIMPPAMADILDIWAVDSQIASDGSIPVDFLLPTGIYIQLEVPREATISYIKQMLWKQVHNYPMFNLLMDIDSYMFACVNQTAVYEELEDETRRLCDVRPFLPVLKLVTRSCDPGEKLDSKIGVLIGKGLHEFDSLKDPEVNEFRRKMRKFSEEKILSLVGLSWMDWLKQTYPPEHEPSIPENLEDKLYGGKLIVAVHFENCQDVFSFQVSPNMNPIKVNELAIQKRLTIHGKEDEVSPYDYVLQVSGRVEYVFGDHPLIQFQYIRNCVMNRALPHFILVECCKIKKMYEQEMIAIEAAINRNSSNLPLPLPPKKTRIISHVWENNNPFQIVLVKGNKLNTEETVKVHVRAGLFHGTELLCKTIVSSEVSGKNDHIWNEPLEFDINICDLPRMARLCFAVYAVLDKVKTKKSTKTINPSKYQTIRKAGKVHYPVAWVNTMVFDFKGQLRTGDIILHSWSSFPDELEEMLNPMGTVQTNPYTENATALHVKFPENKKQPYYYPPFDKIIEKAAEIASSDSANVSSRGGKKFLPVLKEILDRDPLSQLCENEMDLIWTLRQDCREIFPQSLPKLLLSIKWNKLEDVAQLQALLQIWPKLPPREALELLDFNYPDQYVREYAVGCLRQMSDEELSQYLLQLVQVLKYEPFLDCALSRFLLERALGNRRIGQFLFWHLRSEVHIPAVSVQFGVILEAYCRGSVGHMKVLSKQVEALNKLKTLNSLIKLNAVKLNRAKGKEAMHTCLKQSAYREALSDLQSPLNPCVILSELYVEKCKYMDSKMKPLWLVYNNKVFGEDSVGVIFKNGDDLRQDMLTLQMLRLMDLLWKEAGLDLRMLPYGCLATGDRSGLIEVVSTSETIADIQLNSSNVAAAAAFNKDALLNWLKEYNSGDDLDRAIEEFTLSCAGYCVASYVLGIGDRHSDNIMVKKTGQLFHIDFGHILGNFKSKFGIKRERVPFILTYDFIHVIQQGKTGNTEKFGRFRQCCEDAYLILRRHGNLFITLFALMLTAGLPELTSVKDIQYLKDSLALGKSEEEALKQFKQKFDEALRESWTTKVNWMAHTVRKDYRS
Sequence of CYP2C19 (P33261 whole entry): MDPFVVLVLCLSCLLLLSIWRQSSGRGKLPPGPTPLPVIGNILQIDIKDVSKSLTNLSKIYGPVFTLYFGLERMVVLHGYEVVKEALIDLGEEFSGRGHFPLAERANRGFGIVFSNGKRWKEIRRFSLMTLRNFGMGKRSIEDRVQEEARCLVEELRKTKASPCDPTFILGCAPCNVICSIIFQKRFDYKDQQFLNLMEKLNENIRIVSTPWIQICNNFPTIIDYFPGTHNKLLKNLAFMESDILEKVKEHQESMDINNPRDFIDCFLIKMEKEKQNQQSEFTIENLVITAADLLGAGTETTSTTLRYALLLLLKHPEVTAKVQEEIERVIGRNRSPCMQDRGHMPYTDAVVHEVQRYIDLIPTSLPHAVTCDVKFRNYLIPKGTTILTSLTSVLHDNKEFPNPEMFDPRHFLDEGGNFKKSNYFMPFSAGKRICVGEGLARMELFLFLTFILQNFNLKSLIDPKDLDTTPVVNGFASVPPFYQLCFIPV
Sequence of CYP2C9 (P11712 whole entry): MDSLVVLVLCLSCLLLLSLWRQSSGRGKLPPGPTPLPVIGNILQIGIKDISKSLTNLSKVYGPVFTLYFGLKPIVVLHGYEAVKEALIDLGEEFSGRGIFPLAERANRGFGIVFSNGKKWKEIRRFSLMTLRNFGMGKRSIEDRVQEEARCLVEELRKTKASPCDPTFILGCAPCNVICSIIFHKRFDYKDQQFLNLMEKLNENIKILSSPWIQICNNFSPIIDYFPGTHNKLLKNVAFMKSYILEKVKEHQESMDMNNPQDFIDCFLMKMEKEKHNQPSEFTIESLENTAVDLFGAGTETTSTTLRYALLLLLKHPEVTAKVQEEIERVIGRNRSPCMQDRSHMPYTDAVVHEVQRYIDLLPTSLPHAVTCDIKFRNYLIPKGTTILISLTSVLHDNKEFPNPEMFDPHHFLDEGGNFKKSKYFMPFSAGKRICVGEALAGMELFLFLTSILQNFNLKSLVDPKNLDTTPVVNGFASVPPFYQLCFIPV

Take `CS(=O)(=O)N1CCN(Cc2cn3cc(-c4cncnc4)nc(N4CCOCC4)c3n2)CC1`: half-maximal inhibition in data set [1] (IC50) required 123 nM.
Still for that read-out and setting: next, `CNc1ncc(-c2nc(N3CCOCC3)c3nc(CN4CCN(S(C)(=O)=O)CC4)cn3c2Cl)cn1`: 11.4 nM; `CNc1ncc(-c2cn3cc(CN4CCN(S(C)(=O)=O)CC4)nc3c(N3CCOCC3)n2)cn1`: 16.4 nM; `CS(=O)(=O)N1CCN(Cc2cn3c(Cl)c(-c4cnc5[nH]ccc5c4)nc(N4CCOCC4)c3n2)CC1`: 166 nM.
As to `Cc1nc(N)ncc1-c1nc(N2CCOCC2)c2nc(CN3CCN(S(C)(=O)=O)CC3)cn2c1Cl`, the midpoint of inhibition in [1], the IC50, lay at 13 nM.
Regarding `CS(=O)(=O)N1CCN(Cc2cn3cc(-c4ccc5[nH]ncc5c4)nc(N4CCOCC4)c3n2)CC1`, the IC50 (commonly the concentration that gives 50% inhibition) in data set [1] was over 10000 nM.
On to `CS(=O)(=O)N1CCN(Cc2cn3cc(-c4ccc5[nH]ccc5c4)nc(N4CCOCC4)c3n2)CC1`, for which, in data set [1], the 50% inhibitory concentration (IC50) was over 10000 nM.
On to `C[C@H]1CN(Cc2cn3cc(-c4cnc(N)nc4)nc(N4CCOCC4)c3n2)CCN1S(C)(=O)=O`, for which the Ki on PI3K p110 beta/p85 alpha is 319 nM; in [3], 14.7 nM; in [1] it was 6.2 nM; in data set [4], 124 nM. Besides, the IC50 was determined as 120 nM in data set [2] and 5.5 nM in data set [1].
As for `CS(=O)(=O)N1CCN(Cc2cn3cc(-c4cnc(N)nc4C(F)(F)F)nc(N4CCOCC4)c3n2)CC1`, the inhibition at 10 µM on CYP2D6, against CYP2C19, at CYP1A2, on CYP2C9 and against CYP3A4 was under 30% in each case. Further, the remaining at 0.25 h, 1 µM is 96% in data set [5] and 82% in data set [6]. In addition, the Ki came to 79.8 nM on PI3K p110 beta/p85 alpha, 5.06 nM in [3], 7.4 nM in [1] and 26.7 nM in data set [4]. Also, the IC50 amounted to 10.2 nM in [2] and 6.8 nM in data set [1].
In the case of `CS(=O)(=O)N1CCN(Cc2cn3c(Cl)c(-c4cnc(N)nc4C(F)(F)F)nc(N4CCOCC4)c3n2)CC1`, in [1], it took 6.8 nM to reach half-maximal inhibition (IC50).
The same measure, in the same setting: next, `CS(=O)(=O)N1CCN(Cc2cn3cc(-c4cnc(N)c(C#N)c4)nc(N4CCOCC4)c3n2)CC1`: 1010 nM; `CS(=O)(=O)N1CC2CN(Cc3cn4cc(-c5cnc(N)nc5)nc(N5CCOCC5)c4n3)CC2C1` (centres undefined): 117 nM; `CS(=O)(=O)C1CCN(Cc2cn3cc(-c4cnc(N)nc4)nc(N4CCOCC4)c3n2)CC1`: 28.7 nM.
For the compound `C[C@@H]1CN(S(C)(=O)=O)C[C@H](C)N1Cc1cn2cc(-c3cnc(N)nc3)nc(N3CCOCC3)c2n1`, the results for the IC50 in [2] and in data set [1] were 244 nM and 3.2 nM, respectively.
Compound `CS(=O)(=O)N1CCN(Cc2cn3cc(-c4cccc5[nH]ccc45)nc(N4CCOCC4)c3n2)CC1` returned an IC50 in data set [1] of 2500 nM.
As to `CN(C)CC(=O)N1CCN(Cc2cn3cc(-c4cnc(N)nc4)nc(N4CCOCC4)c3n2)CC1`, the IC50 in data set [2] came out at 480 nM.
Take `COc1cncc(-c2cn3cc(CN4CCN(S(C)(=O)=O)CC4)nc3c(N3CCOCC3)n2)c1`: the midpoint of inhibition in data set [1], the IC50, lay at 1110 nM.
`CCS(=O)(=O)N1CCN(Cc2cn3cc(-c4cnc(N)nc4)nc(N4CCOCC4)c3n2)CC1`: the inhibition at 10 µM on CYP2D6, on CYP2C19, against CYP1A2, against CYP2C9 and against CYP3A4 was under 30% in each case. The remaining at 0.25 h, 1 µM in [5] was found to be 64%; in data set [6], 98%. The figures for the IC50 in data set [2] and in data set [1] were 98.5 nM and 13.3 nM, respectively.
`C[C@H](O)C(=O)N1CCN(Cc2cn3cc(-c4cnc(N)nc4)nc(N4CCOCC4)c3n2)CC1` came in with an IC50 in data set [1] of 34.6 nM.
Same read-out and setting: the same measure for `C[C@@H]1CN(Cc2cn3cc(-c4cnc(N)nc4)nc(N4CCOCC4)c3n2)CCN1S(C)(=O)=O`: 2.6 nM; for `COc1ncc(-c2cn3cc(CN4CCN(S(C)(=O)=O)CC4)nc3c(N3CCOCC3)n2)cn1`: 160 nM; for `Cc1ncc(-c2nc(N3CCOCC3)c3nc(CN4CCN(S(C)(=O)=O)CC4)cn3c2Cl)cn1`: 21.6 nM.
Still for that read-out and setting: the same measure for `CS(=O)(=O)N1C2CCC1CN(Cc1cn3cc(-c4cnc(N)nc4)nc(N4CCOCC4)c3n1)C2`: 108 nM.
